From PubChem BioAssay AID328 (DTP/NCI, 2004) come the findings set out here.

Each structure is given as a SMILES string. Values joined by “and” are separate entries in the source; they are usually repeats but may differ in a detail not shown here. Equal values may be shown once. Toxic doses and inconclusive results are not listed.

The subject of the experiment is BDF1 mice, P388 leukemia ip, median survival T/C. The experiment is described as follows: NCI In Vivo Anticancer Drug Screen. Data for tumor model P388 Leukemia (intraperitoneal) in B6D2F1 (BDF1) mice. The settings on record: endpoint: median survival time, higher = longer survival. An outline of the steps: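 Transplantable tumour in mice; compound vs vehicle dosing; survival scored; ratio of treated to control reported.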

Where [1] appears, read: dose: 50.0 mg/kg/injection, schedule: Q01DX009 (ip), vehicle: saline with Tween-80.
Where [2] appears, read: dose: 200.0 mg/kg/injection, schedule: Q04DX003 (ip), vehicle: saline with Tween-80.
Where [3] appears, read: dose: 400.0 mg/kg/injection, schedule: Q04DX003 (ip), vehicle: saline with Tween-80.
Setting [4] is: dose: 50.0 mg/kg/injection, schedule: Q04DX003 (ip), vehicle: saline with Tween-80.
Setting [5] is: dose: 100.0 mg/kg/injection, schedule: Q04DX003 (ip), vehicle: saline with Tween-80.
The mark [6] stands for this setting: dose: 100.0 mg/kg/injection, schedule: Q01DX009 (ip), vehicle: saline with Tween-80.
The mark [7] stands for this setting: dose: 200.0 mg/kg/injection, schedule: Q01DX009 (ip), vehicle: saline with Tween-80.
Setting [8] is: dose: 400.0 mg/kg/injection, schedule: Q01DX009 (ip), vehicle: saline with Tween-80.

As for `CC(C)C1=CC23CCC4C(C)(C(N)=O)CCCC4(C)C2CC1C1C(=O)OC(=O)C13` (configuration not stated), the T/C was 100 % of control (dose: 12.5 mg/kg/injection, schedule: Q01DX001 (ip), vehicle: saline with Tween-80); 108 % of control (dose: 25.0 mg/kg/injection, schedule: Q01DX001 (ip), vehicle: saline with Tween-80); 104 % of control (dose: 50.0 mg/kg/injection, schedule: Q01DX001 (ip), vehicle: saline with Tween-80).

Regarding `Cc1nn(CCO)c(-c2ccccc2)c1-n1on1-c1c(C)nn(CCO)c1-c1ccccc1`, the T/C under setting [1] was 101 % of control.

`O=c1[nH]c(=O)n(CC(O)c2ccc(Cl)s2)cc1F` (configuration not stated): the T/C by setting is: under setting [2], 103 % of control; under setting [3], 117 % of control.

Consider `O=C(CSc1nc2ccccc2s1)c1sc2sc3ccccc3[n+]2c1[O-]`, for which the T/C by setting is: (dose: 50.0 mg/kg/injection, schedule: Q01DX005 (ip), vehicle: saline with Tween-80) 97 % of control; (dose: 100.0 mg/kg/injection, schedule: Q01DX005 (ip), vehicle: saline with Tween-80) 97 % of control; (dose: 200.0 mg/kg/injection, schedule: Q01DX005 (ip), vehicle: saline with Tween-80) 87 % of control.

For the molecule `C/C(=N/O)[c-]1[c-][c-][c-][c-]1.[Fe].[c-]1[c-][c-][cH-][c-]1`, the T/C is, setting by setting: (dose: 25.0 mg/kg/injection, schedule: Q04DX003 (ip), vehicle: saline with Tween-80) 100 % of control; under setting [4], 109 % of control; under setting [5], 109 % of control.

Turning to `CNC[C@@H](O)c1ccc(O)c(O)c1`, the T/C is, setting by setting: (dose: 0.25 mg/kg/injection, schedule: Q04DX003 (ip), vehicle: saline) 110 % of control; (dose: 0.5 mg/kg/injection, schedule: Q01DX009 (ip), vehicle: saline) 91 % of control and 109 % of control; (dose: 0.5 mg/kg/injection, schedule: Q04DX003 (ip), vehicle: saline) 110 % of control; (dose: 1.0 mg/kg/injection, schedule: Q01DX001 (ip), vehicle: saline) 95 % of control; (dose: 1.0 mg/kg/injection, schedule: Q01DX009 (ip), vehicle: saline) 100 % of control; (dose: 1.0 mg/kg/injection, schedule: Q04DX003 (ip), vehicle: saline) 105 % of control. Also, the T/C runs as follows: (dose: 2.0 mg/kg/injection, schedule: Q01DX001 (ip), vehicle: saline) 104 % of control; (dose: 2.0 mg/kg/injection, schedule: Q01DX009 (ip), vehicle: saline) 91 % of control and 109 % of control; (dose: 2.0 mg/kg/injection, schedule: Q04DX003 (ip), vehicle: saline) 86 % of control; (dose: 4.0 mg/kg/injection, schedule: Q01DX009 (ip), vehicle: saline) 95 % of control and 100 % of control; (dose: 9.0 mg/kg/injection, schedule: Q01DX009 (ip), vehicle: saline) 95 % of control.

Regarding `CC(C)=CCNc1ncnc2nc[nH]c12`, the T/C runs as follows: (dose: 10.0 mg/kg/injection, schedule: Q01DX009 (ip), vehicle: saline with Tween-80) 104 % of control; (dose: 20.0 mg/kg/injection, schedule: Q01DX009 (ip), vehicle: saline with Tween-80) 104 % of control; (dose: 20.0 mg/kg/injection, schedule: Q04DX003 (ip), vehicle: saline with Tween-80) 95 % of control; (dose: 40.0 mg/kg/injection, schedule: Q04DX003 (ip), vehicle: saline with Tween-80) 95 % of control; (dose: 80.0 mg/kg/injection, schedule: Q04DX003 (ip), vehicle: saline with Tween-80) 100 % of control.

On to `O=c1[nH]cnc2c1ncn2C1OC(CF)C(O)C1O` (configuration not stated), for which the T/C was 108 % of control (dose: 100.0 mg/kg/injection, schedule: Q01DX001 (ip), vehicle: saline); 86 % of control (dose: 100.0 mg/kg/injection, schedule: Q01DX009 (ip), vehicle: saline); 108 % of control (dose: 200.0 mg/kg/injection, schedule: Q01DX001 (ip), vehicle: saline); 91 % of control (dose: 200.0 mg/kg/injection, schedule: Q01DX009 (ip), vehicle: saline); 108 % of control (dose: 400.0 mg/kg/injection, schedule: Q01DX001 (ip), vehicle: saline); 86 % of control (dose: 400.0 mg/kg/injection, schedule: Q01DX009 (ip), vehicle: saline).

In the case of `COC(C(OC)N1CCOCC1)N1CCOCC1` (configuration not stated), the T/C reads like this: under setting [4], 104 % of control; under setting [6], 91 % of control; under setting [5], 95 % of control; under setting [7], 95 % of control; under setting [2], 100 % of control; under setting [8], 95 % of control. Also, under setting [3], the T/C is 100 % of control.

With `Cc1noc(C)c1CON`, the T/C by setting is: (dose: 12.5 mg/kg/injection, schedule: Q01DX009 (ip), vehicle: saline) 91 % of control; (dose: 25.0 mg/kg/injection, schedule: Q01DX009 (ip), vehicle: saline) 91 % of control; (dose: 50.0 mg/kg/injection, schedule: Q01DX009 (ip), vehicle: saline) 95 % of control.

On to `CCCCN(CCCC)c1ccc(/C=C/c2ccnc3ccccc23)cc1`, for which the T/C reads like this: (dose: 100.0 mg/kg/injection, schedule: Q01DX009 (sc), vehicle: olive oil, sesame oil, peanut oil) 88 % of control; (dose: 100.0 mg/kg/injection, schedule: Q04DX003 (sc), vehicle: olive oil, sesame oil, peanut oil) 88 % of control and 95 % of control; (dose: 200.0 mg/kg/injection, schedule: Q01DX009 (sc), vehicle: olive oil, sesame oil, peanut oil) 88 % of control; (dose: 200.0 mg/kg/injection, schedule: Q04DX003 (sc), vehicle: olive oil, sesame oil, peanut oil) 92 % of control and 95 % of control; (dose: 400.0 mg/kg/injection, schedule: Q01DX009 (sc), vehicle: olive oil, sesame oil, peanut oil) 92 % of control; (dose: 400.0 mg/kg/injection, schedule: Q04DX003 (sc), vehicle: olive oil, sesame oil, peanut oil) 92 % of control and 95 % of control.

With `O=c1[nH]c(=S)c2c3c(sc2[nH]1)CCCC3`, the T/C is 100 % of control (dose: 75.0 mg/kg/injection, schedule: Q04DX003 (ip), vehicle: saline sonified); 100 % of control (dose: 150.0 mg/kg/injection, schedule: Q04DX003 (ip), vehicle: saline sonified); 100 % of control (dose: 300.0 mg/kg/injection, schedule: Q04DX003 (ip), vehicle: saline sonified).

In the case of `COc1ccc(NC(=O)Oc2ccc3c(C)cc(=O)oc3c2)c(OC)c1`, the T/C runs as follows: under setting [7], 155 % of control; under setting [8], 100 % of control.

For the molecule `CCC[CH2][Sn-]([CH2]CCC)([CH2]CCC)[O]c1cc(Cl)c(Cl)cc1Cl`, the T/C was 100 % of control (dose: 0.37 mg/kg/injection, schedule: Q01DX009 (ip), vehicle: Klucel (hydroxypropylcellulose) (HPC)); 100 % of control (dose: 0.75 mg/kg/injection, schedule: Q01DX009 (ip), vehicle: Klucel (hydroxypropylcellulose) (HPC)); 100 % of control (dose: 1.5 mg/kg/injection, schedule: Q01DX009 (ip), vehicle: Klucel (hydroxypropylcellulose) (HPC)); 110 % of control (dose: 3.0 mg/kg/injection, schedule: Q01DX009 (ip), vehicle: Klucel (hydroxypropylcellulose) (HPC)); 89 % of control (dose: 6.0 mg/kg/injection, schedule: Q01DX009 (ip), vehicle: Klucel (hydroxypropylcellulose) (HPC)).

Take `Clc1ccc(CNc2ncnc3[nH]ncc23)cc1Cl`: the T/C by setting is: (dose: 12.5 mg/kg/injection, schedule: Q01DX009 (ip), vehicle: saline with Tween-80) 100 % of control; (dose: 25.0 mg/kg/injection, schedule: Q01DX009 (ip), vehicle: saline with Tween-80) 100 % of control; under setting [1], 100 % of control.

On to `Cc1cc(C)c(C)c(C(O)(C(=O)O)c2ccccc2)c1` (configuration not stated), for which the T/C reads like this: under setting [6], 87 % of control; under setting [7], 104 % of control.

As to `C/C(=N\[N+](C)(C)C)c1ccccc1`, the T/C was 95 % of control (dose: 50.0 mg/kg/injection, schedule: Q04DX003 (ip), vehicle: saline) and 109 % of control (dose: 100.0 mg/kg/injection, schedule: Q04DX003 (ip), vehicle: saline).

Regarding `CCNC(C)(C)C(SS(=O)(=O)O)c1cccs1` (configuration not stated), the T/C is, setting by setting: (dose: 100.0 mg/kg/injection, schedule: Q01DX009 (ip), vehicle: water) 121 % of control; (dose: 100.0 mg/kg/injection, schedule: Q04DX003 (ip), vehicle: water) 102 % of control; (dose: 200.0 mg/kg/injection, schedule: Q01DX009 (ip), vehicle: water) 121 % of control; (dose: 200.0 mg/kg/injection, schedule: Q04DX003 (ip), vehicle: water) 111 % of control; (dose: 400.0 mg/kg/injection, schedule: Q04DX003 (ip), vehicle: water) 93 % of control.
